This note sets out measurements from article PMC6987128, “Target protein-oriented isolation of Hes1 dimer inhibitors using protein based methods” (Scientific Reports, 2020).

The term IC50 denotes the point on the concentration scale where inhibition reaches its midpoint.

For the experiment, the target named is T1, Hes1 dimer formation (Hes1-Hes1 interaction) (Rattus norvegicus, UniProt Q04666).
T1 construct: Glutathione-S-transferase (GST) fused rat Hes1(3–281) protein was expressed in Escherichia coli; GST (N, cleaved yes); GST (N); made in house; host or cells: Escherichia coli JM109 (pGEX-ratHes1 3-281)
T1 sequence (Q04666 3-281): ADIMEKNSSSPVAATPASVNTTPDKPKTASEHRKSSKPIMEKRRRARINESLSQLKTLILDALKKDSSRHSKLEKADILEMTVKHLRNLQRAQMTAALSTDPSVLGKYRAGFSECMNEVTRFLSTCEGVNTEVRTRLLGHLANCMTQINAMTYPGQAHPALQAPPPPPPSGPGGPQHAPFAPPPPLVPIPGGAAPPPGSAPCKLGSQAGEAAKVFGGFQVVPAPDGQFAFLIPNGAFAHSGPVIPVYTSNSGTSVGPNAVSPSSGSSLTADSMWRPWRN
Description: Hes1-Hes1 interaction fluorescent plate assay (Hes1 dimer formation inhibition). The class given is binding. An excerpt:
It is essential to inhibit undesired PPIs in drug development, and bioactivity-guided isolation using the inhibitory activity of PPIs is an attractive method to obtain effective inhibitors. However, currently there are only a few examples of such approaches using PPI assay systems[22],[23]. We previously developed a Hes1-Hes1 interaction fluorescent plate assay and reported the screening results of our natural products compound library (Fig. 2A)[24]. Glutathione-S-transferase (GST) fused rat Hes1(3–281) protein was expressed in Escherichia coli and purified rat Hes1 protein was immobilized on the bottom of 96 well plates. We prevented GST-GST interactions, which would result in false positives, by preparing GST-free Hes1 protein by GST cleavage with Turbo3C protease. After labeling Hes1 with Cy3, this florescent Hes1 protein was added to the wells of the above plate and incubated for 24 h at 4 °C. Hes1-Hes1 interaction was successfully detected as Cy3 fluorescence intensity. Using this assay system, we screened our 118 plant extract library and identified the MeOH extract of Psidium guajava leaves to contain naturally occurring compounds that inhibit Hes1 dimer formation. The MeOH extract (29.9 g) was fractionated using Diaion HP-20 with a MeOH-acetone solvent system to afford fractions 1A to 1C. Active fraction 1A (27.2 g) was suspended in 10% aq. MeOH and partitioned with hexane, EtOAc and BuOH to obtain hexane (1.1 g), EtOAc (5.7 g), BuOH (4.7 g) and aqueous (18.9 g) soluble fractions. Part of the active BuOH soluble fraction was subjected to ODS column chromatography and reverse-phase HPLC. Activity-guided separation yielded ten compounds (1–10; Fig. 3). The isolated compounds were identified as morin (1)[25], isoquercitrin (2)[26], methyl gallate (3)[27], (+)-catechin (4)[28],[29], dihydrophaseic acid (5)[30], quercetin (6)[26],[31], avicularin (7)[32],[33], gallic acid (8)[34], protocatechuic acid (9)[35] and 4-hydroxybenzoic acid (10)[36] based on comparisons of their spectral data with spectra in the literature.
Hes1-bound microplate wells[24] (Nunc Immobilizer^TM Amino Plate, Thermo) were incubated with 50 μL of Cy3-labeled-Hes1 in NET-N buffer (NET buffer (20 mM Tris-HCl, pH 7.5, 200 mM NaCl, 1 mM EDTA) containing 0.05% Nonidet® P-40, ca. 7 mg/L, dye/protein = 0.4) for 24 h at 4 °C. After removing the protein solution, the wells were washed twice with 200 μL of PBST, then each compound solution (in NET-N buffer, 50 μL) was added and the plates were incubated for 1 h at RT in the dark. The wells were washed twice with 200 μL of PBST, then dried under reduced pressure for 1 h in the dark. The Cy3 dye was excited at 544 nm and emission was monitored at 590 nm using a microplate reader (Fluoroskan Ascent, Thermo Labsystems, Vantaa, Finland). The assays were typically carried out in three individual wells, and the mean value and SD were calculated. The equilibrium between dimer formation between Cy3-Hes1/Cy3-Hes1 (in solution) and Cy3-Hes1/immobilized-Hes1 allowed the detection of Cy3-Hes1/immobilized-Hes1.
Typical procedure; Nunc Immobilizer^TM Amino 96 well Plate, white (Nalge Nunc Int., NY, USA) was used for immobilizing of Hes1. The micro plate wells were incubated with 100 µl of Hes1 (10 µg/mL in PBS) 2 h at 4 °C. After removing protein solution, the wells were incubated for 2 h at 4 °C with 100 µL of 10 mM ethanolamine (in 100 mM Na2CO3 buffer, pH 9.6) to block remaining activated units on the well. Then, wells were washed twice with 200 µL of PBST (PBS containing 0.05% Tween 20).
The Cy3 dye reagent was prepared as 1 vial of Cy3 monofunctional dye reagent (succinimidylester type; GE Healthcare, Buckinghamshire, UK) in DMSO (50 µL) and stored at -20 °C. Cy3-labeled Hes1 was prepared by mixing of protein in PBS with Cy3 dye reagent in DMSO (typically 0.6 µL of DMSO solution to 1 mL of 10 mg/L protein solution in PBS) for 30 min at 4 °C in the dark. […]

Take `CC1OC(Oc2cc3c(=O)oc4c(O)c(O)cc5c(=O)oc(c2O)c3c45)C(O)C(O)C1OC(=O)c1cc(O)c(O)c(O)c1` [Compound 11, 4-O-(4″-O-galloyl-α-L-rhamnopyranosyl)ellagic acid]: where the note is “24 h, 2.5 μM compound, 0 μM = 100, read-out: Hes1 dimer formation rate (%)”, the remaining activity at 2.5 µM was 50.4%. The remaining activity at 5 µM (24 h, 5 μM compound, 0 μM = 100, read-out: Hes1 dimer formation rate (%)) came out at 27.6%. In addition, the remaining activity at 10 µM (24 h, 10 μM compound, 0 μM = 100, read-out: Hes1 dimer formation rate (%)) came out at 18.1%. Further, the remaining activity at 25 µM (24 h, 25 μM compound, 0 μM = 100, read-out: Hes1 dimer formation rate (%)) came out at 4.1%. The IC50 (Cy3-labeled Hes1 / immobilized Hes1, compound 1 h at RT, read-out: Hes1 dimer formation inhibitory activity IC50) is 2530 nM.
